This note sets out measurements from US20160200757A1, “TYLOSIN A ANALOGS AND DERIVATIVES” (AbbVie Inc., priority 2014, published 2016).

For series [1], the system named is S. epidermis ATCC49134. In words: Broth microdilution MIC. Type of series: cell-based. To be noted: Staphylococcus epidermidis, 35° C., approximately 20 hours. As for the experimental part:
(§1) Minimum inhibitory concentration (“MIC”) values for the isolates were determined using a broth microdilution method. The wells of a standard 96-well microdilution plate (Costar 3795, Corning Inc., Corning, N.Y.) were filled with 150 μL of an appropriate diluent. For test compounds supplied as powders, Column 1 was filled with 300 μL of either the investigational or comparator agents at the appropriate stock concentration (40× the highest test concentration). A Biomek 200 was used to make eleven 2-fold serial dilutions to create a “mother plate”. For compounds supplied as DMSO stocks, compounds were diluted to 50× the highest test concentrations and 2-fold serial dilutions were made manually.
(§2) For compounds supplied as solids, “daughter plates” were loaded with 185 μL using the Multidrop 384. These daughter plates were prepared on the Biomek F/X instrument which transferred 5 μL of drug solution from each well of the mother plate to each corresponding well of each daughter plate in a single step. For compounds supplied as DMSO stock, daughter plates were filled with 90 μL of media and 2 μL of drug solution from each well of the mother plate was added to each corresponding well manually.
(§3) A suspension of standardized inoculum for each organism, equivalent to a 0.5 McFarland standard, was diluted 1:10 in Mueller Hinton II broth resulting in a final concentration of approximately 5×10^5 CFU/mL during testing. Inocula were transferred to compartments of sterile reservoirs divided by length. The Biomek 2000 was used to inoculate all plates. Daughter plates were placed on the Biomek 2000 in reverse orientation so that plates were inoculated from low to high drug concentration. The Biomek 2000 delivered 10 μL of standardized inoculum into each well of the appropriate daughter plate. The final concentration of DMSO (if used as a solvent) in the test wells was 2.5%.
(§4) Plates were stacked 3 high, covered with a lid on the top plate, placed into plastic bags, and incubated at 35° C. for approximately 20 hours. […] MIC values were read where visible growth of the organism was inhibited.
In general terms: In broth dilution the organism is exposed to a series of concentrations in liquid medium.

For series [2], the system named is S. pneumonia ATCC49619. In words: Broth microdilution MIC. Type of series: cell-based. The note with it: Streptococcus pneumoniae, 35° C., approximately 20 hours. Here is the method:
as §1, §2, §3, §4

Series [3] has as its system E. faecalis ATCC29212. In words: Broth microdilution MIC. The format is cell-based. To be noted: Enterococcus faecalis, 35° C., approximately 20 hours. Here is the method: as §1, §2, §3, §4
The subject of series [4] is S. aureus ATCC29213. Briefly: Broth microdilution MIC. The format is cell-based. The note with it: Staphylococcus aureus, 35° C., approximately 20 hours. Here is the method:
as §1, §2, §3, §4

The subject of series [5] is H. influenza ATCC49247. In words: Broth microdilution MIC. Type of series: cell-based. To be noted: Haemophilus influenzae, 35° C., approximately 20 hours. Here is the method:
as §1, §2, §3, §4

The nature of series [6]: Pharmacokinetic study, oral dosing in Sprague-Dawley rats (AUC/D). Type of series: in vivo. The note with it: dosed orally in rats; dose-normalized plasma AUC. Here is the method:
(§5) Compounds were dosed orally to Sprague-Dawley rats, using appropriate formulations and doses. Serial blood samples were collected at selected time points post-dosing. Plasma was separated from the blood by centrifugation. 25 μL of plasma (sample, standard or QC) was combined with 25 μL of internal standard and 250 μL acetonitrile. Following vortexing to mix, the plates were centrifuged to separate the precipitated proteins. A 50 μL aliquot of the supernatant was transferred to a clean 96-well plate and diluted with 100 μL 0.1% formic acid. Stock standards were prepared in DMSO, with intermediate dilutions in acetonitrile:water (50:50, by volume). Samples were analyzed by LC-MS. The drug level curves were used to calculate dose-normalized area under the curve (AUC/D) data, which are reported as μg-hr/mL per mg/kg.

A short description of series [7]: Parent vs. metabolite levels in plasma after oral dosing in rats. Type of series: in vivo. The note with it: oral 20 mg/kg, based on AUC(0-∞), 10 plasma samples over 12 hours, vs 4″-debenzylated metabolite. Here is the method: Pharmacokinetic properties of compounds having three non-hydrogen substituents at the alpha-position of the ester (i.e., a tri-substituted ester) were further examined. A compound having a 4″-tri-substituted ester moiety (Compound 14) was compared to a di-substituted control compound. The compounds were dosed orally, 20 mg/kg, in rats.
Pharmacokinetic properties of compounds having a 4″-benzyl moiety were further examined. A compound having a 4″-halobenzyl moiety (Compound 10) was compared to a compound having an unsubstituted 4″-benzyl moiety. The compounds were dosed orally, 20 mg/kg, in rats.

Series [8] can be described thus: Pharmacokinetic study, oral dosing in BALB/c mice (AUC/D). The format is in vivo. The note with it: dosed orally in mice; when Compound 43 was dosed, levels of Compound 19 were measured; when Compound 46 was dosed, levels of Compound 10. As for the experimental part:
as §5, with “Alternatively, compounds” for “Compounds”, “BALB/c mice,” for “Sprague-Dawley rats,”
When Compound 43 was dosed, levels of Compound 19 were measured; when Compound 46 was dosed, levels of Compound 10 were measured. Thus, Compounds 43 and 46 serve as prodrugs for Compounds 19 and 10, respectively. Administration of 4′″-modified prodrugs provided greater exposure to the 4′″ deacylated metabolite as compared to administration of the corresponding metabolite itself. […]

For series [9], the system named is Staphylococcus aureus ATCC 25923. In words: Agar disc diffusion assay (zone of inhibition). Type of series: cell-based. To be noted: 10 μg on 7 mm paper disc (antibacterial standard). Here is the method:
Antibacterial tests were performed on a series of tylosin A derivatives via the ‘agar disc diffusion’ assay. This assay is employed to determine the sensitivity of pathogens to chemical entities under investigation and is a standardized procedure outlined in 1961 by the World Health Organization.
Bacteria tested were a standard gram positive organism; Staphylococcus aureus ATCC 25923 (available from the American Type Culture Collection).
Colonies of bacteria are dispensed into liquid Mueller-Hinton II broth (available from Becton, Dickinson and Company), agitated and then streaked onto prepared Mueller-Hinton agar plates. Bacteria were allowed to grow for 16 hours at 37 degrees C. A sterile loupe was used to select 4-5 isolates from the cultures thus grown, and dispensed into Mueller-Hinton broth. […]
To obtain a dose response curve against Staphylococcus aureus, 20 μL (20 nanomoles) of each tylosin A derivative to be tested as obtained from the company compound repository at 1 mM stock solution in DMSO was dispensed onto a 7 mm blank paper disc (available from BBL, Le Pont du Claire, France). […] At this time, the ‘zone of inhibition’ around each 7 mm paper disc (inclusive of the disc itself) was measured and recorded in Table 6 below.

≈ marks a conversion by molar mass, not a printed value.

Take `CC[C@H]1OC(=O)C[C@@H](O)[C@H](C)[C@@H](O[C@@H]2O[C@H](C)[C@@H](O[C@H]3C[C@@](C)(O)[C@@H](OCc4ccccc4)[C@H](C)O3)[C@H](N(C)C)[C@H]2O)[C@@H](CC=O)C[C@@H](C)C(=O)/C=C/C(C)=C/[C@@H]1CO[C@@H]1O[C@H](C)[C@@H](O)[C@@H](OC)[C@H]1OC` [Compound G, Tylosin A 4″ O-Benzyl]: the MIC in series [1] was determined as 2 µg/mL (≈ 1.99 µM); in [2], 0.25 µg/mL (≈ 0.248 µM); in series [3], 2 µg/mL (≈ 1.99 µM); in series [4], 4 µg/mL (≈ 3.98 µM); in series [5] it was 16 µg/mL (≈ 15.9 µM). In addition, in [6], the AUC/D amounted to 0.05 μg-hr/mL per mg/kg. In series [7], the Parent % was 95%.

For the compound `CC[C@H]1OC(=O)C[C@@H](O)[C@H](C)[C@@H](O[C@@H]2O[C@H](C)[C@@H](O[C@H]3C[C@@](C)(O)[C@@H](O)[C@H](C)O3)[C@H](N(C)C)[C@H]2O)[C@@H](CC=O)C[C@@H](C)C(=O)/C=C/C(C)=C/[C@@H]1CO[C@@H]1O[C@H](C)[C@@H](O)[C@@H](OC)[C@H]1OC` [Tylosin A, 2-((4R,5S,6S,7R,9R,11E,13E,15R,16R)-6-(((2R,3R,4R,5S,6R)-5-(((2S,4R,5S,6S)-4,5-dihydroxy-4,6-dimethyltetrahydro-2H-pyran-2-yl)oxy)-4-(dimethylamino)-3-hydroxy-6-methyltetrahydro-2H-pyran-2-yl)oxy)-16-ethyl-4-hydroxy-15-((((2R,3R,4R,5R,6R)-5-hydroxy-3,4-dimethoxy-6-methyltetrahydro-2H-pyran-2-yl)oxy)methyl)-5,9,13-trimethyl-2,10-dioxooxacyclohexadeca-11,13-dien-7-yl)acetaldehyde], the MIC in series [1] came to 1 µg/mL (≈ 1.09 µM); in series [2], 0.25 µg/mL (≈ 0.273 µM); in [3], 1 µg/mL (≈ 1.09 µM); in series [4], 2 µg/mL (≈ 2.18 µM); in series [5], 16 µg/mL (≈ 17.5 µM). The AUC/D is 0.0054 μg-hr/mL per mg/kg in series [8] and 0.0097 μg-hr/mL per mg/kg in [6].

Gentamicin registered a Zone of inhibition in series [9] of 23 mm.
